Laboratory results from patent publication US20190225650A1, “PEPTIDOMIMETIC MACROCYCLES AND USE THEREOF IN REGULATING HIF1ALPHA” (AILERON THERAPEUTICS, INC., priority 2013, published 2019).
Bridge positions count the residues as written; N and C are the ends. Square brackets hold non-standard residues; d marks the D form. Peptide text beside a SMILES is read from it. Ala(3-Me-diazirin-3-yl) = CC1(C[C@H](N)C(=O)O)N=N1; R8 = C=CCCCCCC[C@@](C)(N)C(=O)O; S5 = C=CCCC[C@](C)(N)C(=O)O; Nle = CCCC[C@H](N)C(=O)O

What was measured:
HRE-bla ME-180 cells = assay: Reporter gene assay (HRE-bla ME-180 HIF reporter, GeneBLAzer); type: cell-based, human; conditions: for EC50: 24 hour normoxia
Method in brief: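 A FRET β-lactamase readout of HIF transcription was used. After compound treatment in 0.3% DMSO/media under normoxic conditions, 20 μl of 6× LiveBLAzer-FRET B/G (CCF4-AM) substrate was added. Plates sat 3 hr at room temperature in the dark and were read at 409 Ex/460Em and 409Ex/530Em on a Synergy 2. Inhibition was compared against DMSO vehicle controls, with chetomin as positive control.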

[1] = target: T1, flag-tagged HIF1α (AA 786-826) / His6-tagged p300 (AA 323-423) complex (Homo sapiens, UniProt Q09472); assay: HIF1α p300 displacement assay (TR FRET, +CHAPS); type: binding; conditions: read-out: IC50 (nM) (HIF1α_p300 Displacement + CHAPS)
T1 construct: His6-tagged p300 (AA 323-423); made in house; host or cells: E. coli (pETDuet vector)
Method in brief: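 In this TR-FRET displacement format, peptides compete HIF1α C-terminal transactivation domain off p300-CH. They were preincubated 1 h at room temperature with 300 nM complex in HEPES pH 7.4/NaCl buffer with 7.5 mM CHAPS and 1 mM DTT. Anti-His-D2 (4 nM) and anti-Flag-K (0.5 μM) followed for 2 h, and a one-site fit of the fluorescence ratio gave IC50.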

CCCC[C@H](NC(=O)[C@H](C)NC(=O)[C@@H](NC(=O)[C@@H](NC(=O)[C@H](CC(C)C)NC(=O)[C@]1(C)CCCC=CCCC[C@](C)(NC(=O)[C@H](CCC(=O)O)NC(=O)[C@H](C)NC(=O)[C@@H](NC(=O)[C@H](Cc2ccccc2)NC(C)=O)[C@@H](C)CC)C(=O)N[C@@H](C(C)C)C(=O)N[C@@H](CC(C)C)C(=O)N[C@@H](CCCC)C(=O)N1)C(C)C)[C@@H](C)CC)C(=O)N[C@@H](C)C(=O)N[C@@H](CC(C)C)C(=O)N[C@@H](CC(=O)O)C(=O)N[C@@H](C)C(=O)N[C@H](C(N)=O)[C@@H](C)CC [SP-121] (Ac-FIAE[S5]VL[Nle][S5]LVIA[Nle]ALDAI-NH2; staple 5-9)
EC50 (HRE-bla ME-180 cells): > 30 µM | IC50 [1]: 400 to 700 nM

CC[C@H](C)[C@H](NC(=O)[C@H](Cc1ccccc1)NC(C)=O)C(=O)N[C@H](C(=O)N[C@@H](CCC(=O)O)C(=O)N[C@@H](CCC(=O)O)C(=O)N[C@H](C(=O)N[C@@H](CC(C)C)C(=O)N[C@@H](CCSC)C(=O)N[C@@]1(C)CCCC=CCCC[C@@](C)(C(=O)N[C@@H](CCSC)C(=O)N[C@@H](C)C(=O)N[C@@H](CC(C)C)C(N)=O)NC(=O)[C@H]([C@@H](C)CC)NC(=O)[C@H](C(C)C)NC(=O)[C@H](CC(C)C)NC1=O)C(C)C)[C@@H](C)O [SP-231] (Ac-FITEEVLM[S5]LVI[S5]MAL-NH2; staple 9-13)
18 h Avg % max inhibition at top conc (HIF Rptr-24 hrs normoxia) (μM) (HRE-bla ME-180 cells): + (<10: +) | EC50 (HRE-bla ME-180 cells): > 30 µM | IC50 [1]: > 700 nM

CCCC[C@H](NC(=O)[C@H](C)NC(=O)[C@@H](NC(=O)[C@@H](NC(=O)[C@H](CC(C)C)NC(=O)[C@]1(C)CCCC=CCCC[C@](C)(NC(=O)[C@H](CCC(=O)O)NC(=O)[C@H](CC(=O)O)NC(=O)[C@@H](NC(=O)[C@H](Cc2ccccc2)NC(C)=O)[C@@H](C)CC)C(=O)N[C@@H](C(C)C)C(=O)N[C@@H](CC(C)C)C(=O)N[C@@H](CCCC)C(=O)N1)C(C)C)[C@@H](C)CC)C(=O)N[C@@H](C)C(=O)N[C@@H](CC(C)C)C(N)=O [SP-122] (Ac-FIDE[S5]VL[Nle][S5]LVIA[Nle]AL-NH2; staple 5-9)
18 h Avg % max inhibition at top conc (HIF Rptr-24 hrs normoxia) (μM) (HRE-bla ME-180 cells): ++ (≤10 but <25: ++) | EC50 (HRE-bla ME-180 cells): > 30 µM | IC50 [1]: 200 to 400 nM

CCCC[C@@H]1NC(=O)[C@H](CC(C)C)NC(=O)[C@H](C(C)C)NC(=O)[C@@](C)(NC(=O)[C@H](CCC(=O)O)NC(=O)[C@H](CC(=O)O)NC(=O)[C@@H](NC(=O)[C@H](Cc2ccccc2)NC(C)=O)[C@@H](C)CC)CCCC=CCCCC2(CCCC=CCCC[C@](C)(C(=O)N[C@@H](CCCC)C(=O)N[C@@H](C)C(=O)N[C@@H](CC(C)C)C(N)=O)NC(=O)[C@H]([C@@H](C)CC)NC(=O)[C@H](C(C)C)NC(=O)[C@H](CC(C)C)NC2=O)NC1=O (some centres unmarked) [SP-204]
IC50 [1]: > 700 nM

CCCC[C@H](NC(=O)[C@H](CCC(=O)O)NC(=O)[C@@H](NC(=O)[C@]1(C)CCCC=CCCC[C@](C)(NC(=O)[C@@H](NC(=O)[C@H](CCC(=O)O)NC(=O)[C@H](CCC(=O)O)NC(=O)[C@H](CC(=O)O)NC(=O)[C@@H](NC(=O)[C@H](CC(N)=O)NC(=O)[C@@H](NC(=O)[C@H](CCC(N)=O)NC(=O)[C@H](CC(=O)O)NC(=O)[C@H](CC(C)C)NC(=O)[C@H](C)NC(=O)[C@H](CCCNC(=N)N)NC(=O)[C@]2(C)CCCC=CCCC[C@](C)(NC(=O)[C@H](CCC(N)=O)NC(=O)[C@H](CC(C)C)NC(=O)[C@H](CC(C)C)NC(C)=O)C(=O)N[C@@H](CCC(=O)O)C(=O)N[C@@H](CCC(=O)O)C(=O)N[C@@H](CC(C)C)C(=O)N2)C(C)C)[C@@H](C)CC)C(C)C)C(=O)N[C@@H](CCCC)C(=O)N[C@@H](CO)C(=O)N[C@@H](CC(C)C)C(=O)N1)[C@@H](C)CC)C(=O)NCC(N)=O [SP-302] (Ac-LLQ[S5]EEL[S5]RALDQVNIDEEV[S5][Nle]SL[S5]IE[Nle]G-NH2; staple 4-8, 21-25)
IC50 [1]: > 700 nM

CCCC[C@H](NC(=O)[C@H](CC(C)C)NC(=O)[C@@H](NC(=O)[C@H](C)NC(=O)[C@H](CCC(=O)O)NC(=O)[C@H](C)NC(=O)[C@@H](NC(=O)[C@H](Cc1ccccc1)NC(C)=O)[C@@H](C)CC)C(C)C)C(=O)N[C@@]1(C)CCCC=CCCC[C@@](C)(C(=O)N[C@@H](CCCC)C(=O)N[C@@H](C)C(=O)N[C@@H](CC(C)C)C(=O)N[C@@H](C)C(=O)N[C@@H](C)C(=O)N[C@H](C(N)=O)[C@@H](C)CC)NC(=O)[C@H]([C@@H](C)CC)NC(=O)[C@H](C(C)C)NC(=O)[C@H](CC(C)C)NC1=O [SP-223] (Ac-FIAEAVL[Nle][S5]LVI[S5][Nle]ALAAI-NH2; staple 9-13)
IC50 [1]: > 700 nM

CCCC[C@H](NC(=O)[C@H](CCC(=O)O)NC(=O)[C@@H](NC(=O)[C@@H](NC(=O)[C@H](CC(C)C)NC(=O)[C@]1(C)CCCC=CCCC[C@](C)(NC(=O)[C@H](CCC(=O)O)NC(=O)[C@H](CC(=O)O)NC(=O)[C@@H](NC(=O)[C@H](Cc2ccccc2)NC(=O)[C@H](CCCCN)NC(=O)[C@H](CCCCN)NC(C)=O)[C@@H](C)CC)C(=O)N[C@@H](C(C)C)C(=O)N[C@@H](CC(C)C)C(=O)N[C@@H](CCCC)C(=O)N1)C(C)C)[C@@H](C)CC)C(=O)N[C@@H](C)C(=O)N[C@@H](CC(C)C)C(N)=O [SP-135] (Ac-KKFIDE[S5]VL[Nle][S5]LVIE[Nle]AL-NH2; staple 7-11)
IC50 [1]: > 700 nM

CCCC[C@@H]1NC(=O)[C@H](CC(C)C)NC(=O)[C@](C)(NC(=O)[C@H](CCC(=O)O)NC(=O)[C@H](CCC(=O)O)NC(=O)[C@H](CC(=O)O)NC(=O)[C@@H](NC(=O)[C@H](CC(N)=O)NC(=O)[C@@H](NC(=O)[C@H](CCC(N)=O)NC(=O)[C@H](CC(=O)O)NC(=O)[C@H](CC(C)C)NC(=O)[C@H](C)NC(=O)[C@H](CCCNC(=N)N)NC(=O)[C@]2(C)CCCC=CCCC[C@](C)(NC(=O)[C@H](CCC(N)=O)NC(=O)[C@H](CC(C)C)NC(=O)[C@H](CC(C)C)NC(C)=O)C(=O)N[C@@H](CCC(=O)O)C(=O)N[C@@H](CCC(=O)O)C(=O)N[C@@H](CC(C)C)C(=O)N2)C(C)C)[C@@H](C)CC)CCCCCCC=CCCC[C@@](C)(C(=O)N[C@@H](CCCC)C(=O)NCC(N)=O)NC(=O)[C@H]([C@@H](C)CC)NC(=O)[C@H](C(C)C)NC(=O)[C@H](CC(C)C)NC(=O)[C@H](CO)NC1=O [SP-329] (Ac-LLQ[S5]EEL[S5]RALDQVNIDEE[R8]L[Nle]SLVI[S5][Nle]G-NH2; staple 4-8, 20-27)
IC50 [1]: > 700 nM

CCCC[C@@H]1NC(=O)[C@](C)(NC(=O)[C@@H](NC(=O)[C@H](CCC(=O)O)NC(=O)[C@H](CCC(=O)O)NC(=O)[C@H](CC(=O)O)NC(=O)[C@@H](NC(=O)[C@H](CC(N)=O)NC(=O)[C@@H](NC(=O)[C@]2(C)CCCC=CCCCCCC[C@@](C)(NC(=O)[C@H](CCC(=O)O)NC(=O)CNC(=O)[C@H](CCC(N)=O)NC(=O)[C@H](CC(C)C)NC(=O)[C@H](CC(C)C)NC(C)=O)C(=O)N[C@@H](CC(C)C)C(=O)N[C@@H](CC(C)C)C(=O)N[C@@H](CCCNC(=N)N)C(=O)N[C@@H](C)C(=O)N[C@@H](CC(C)C)C(=O)N[C@@H](CC(=O)O)C(=O)N2)C(C)C)[C@@H](C)CC)C(C)C)CCCCCCC=CCCC[C@@](C)(C(=O)NCC(N)=O)NC(=O)[C@H](CCC(=O)O)NC(=O)[C@H]([C@@H](C)CC)NC(=O)[C@H](C(C)C)NC(=O)[C@H](CC(C)C)NC(=O)[C@H](CO)NC1=O [SP-317] (Ac-LLQGE[R8]LLRALD[S5]VNIDEEV[R8][Nle]SLVIE[S5]G-NH2; staple 6-13, 21-28)
IC50 [1]: > 700 nM

CCCC[C@@H]1NC(=O)[C@](C)(NC(=O)[C@@H](NC(=O)[C@H](CCC(=O)O)NC(=O)[C@H](CCC(=O)O)NC(=O)[C@H](CC(=O)O)NC(=O)[C@@H](NC(=O)[C@H](CC(N)=O)NC(=O)[C@@H](NC(=O)[C@H](CCC(N)=O)NC(=O)[C@H](CC(=O)O)NC(=O)[C@H](CC(C)C)NC(=O)[C@H](C)NC(=O)[C@H](CCCNC(=N)N)NC(=O)[C@]2(C)CCCC=CCCC[C@](C)(NC(=O)[C@H](CCC(N)=O)NC(=O)[C@H](CC(C)C)NC(=O)[C@H](CC(C)C)NC(C)=O)C(=O)N[C@@H](CCC(=O)O)C(=O)N[C@@H](CCC(=O)O)C(=O)N[C@@H](CC(C)C)C(=O)N2)C(C)C)[C@@H](C)CC)C(C)C)CCCCCCC=CCCC[C@@](C)(C(=O)NCC(N)=O)NC(=O)[C@H](CCC(=O)O)NC(=O)[C@H]([C@@H](C)CC)NC(=O)[C@H](C(C)C)NC(=O)[C@H](CC(C)C)NC(=O)[C@H](CO)NC1=O [SP-314] (Ac-LLQ[S5]EEL[S5]RALDQVNIDEEV[R8][Nle]SLVIE[S5]G-NH2; staple 4-8, 21-28)
IC50 [1]: > 700 nM

CCCC[C@H](NC(=O)[C@H](CCC(=O)O)NC(=O)[C@@H](NC(=O)[C@@H](NC(=O)[C@H](CC(C)C)NC(=O)[C@]1(C)CCCC=CCCC[C@](C)(NC(=O)[C@H](CCC(=O)O)NC(=O)[C@H](CC(=O)O)NC(=O)[C@@H](NC(=O)[C@H](Cc2ccccc2)NC(C)=O)[C@@H](C)CC)C(=O)N[C@@H](C(C)C)C(=O)N[C@@H](CC(C)C)C(=O)N[C@@H](CCCC)C(=O)N1)C(C)C)[C@@H](C)CC)C(=O)N[C@@H](C)C(=O)N[C@@H](CC(C)C)C(=O)N[C@@H](CCCCN)C(=O)N[C@@H](CCCCN)C(N)=O [SP-133] (Ac-FIDE[S5]VL[Nle][S5]LVIE[Nle]ALKK-NH2; staple 5-9)
IC50 [1]: > 700 nM

SP-72 (Ac-FIDEEVL[Nle][S5]L[Ala(3-Me-diazirin-3-yl)]I[S5][Nle]ALDRI-NH2; staple 9-13)
IC50 [1]: 400 to 700 nM
